Patent US7862815B2, “Methods for inhibiting angiogenesis with inhibitors of proadrenomedullin N-terminal 20 peptide (PAMP)” (The United States of America as represented by the …, priority 2002, dated 2011)

Experiments:
nude mice = assay: Directed in vivo Angiogenesis Assay (DIVAA), Example 1; conditions: for FITC-dextran fluorescence of implants (angiogenesis): mean ± standard deviation of five implants
Description: Silicone tubes (0.15 mm outside diameter, New Age Industries, Southampton, Pa.) are cut to 1 cm in length, and one end of each tube is closed with liquid silicone and dried for 24 hours, then autoclaved. A dilution of test substances is prepared in matrigel in sterile cold Eppendorf tubes. Tubes are filled with a Hamilton syringe. Nude mice are anesthetized, and a pocket is made in the dorsal skin of each animal. The tubes are then implanted with the open end first, and the wounds are then sealed.
After nine to eleven days, the tail veins are injected with FITC-dextran to visualize the blood vessels, and the dye is allowed to distribute throughout the vasculature for about 20 minutes. Mice are then euthanized with CO2 and the skin pockets are removed.
Skin is then dissected, keeping the vessels near the mouth of the tube. The matrigel is then displaced from the tube, incubated at 37° C. in the presence of dispase, then vortexed, centrifuged, and matrigel aliquots are transferred into 96-well plates for fluorescent emission. Fluorescence is read in a fluorimeter.
This example provides a description of use of the Directed in vivo Angiogenesis Assay (DIVAA; see Martinez et al., J. Natl. Cancer Inst. 2002; 94:1226-1237) to measure the angiogenic potential of PAMP in comparison to known angiogenesis factors.
Implants were prepared as follows: Silicone tubes (0.15 mm outside diameter, New Age Industries, Southampton, Pa.) were cut to 1 cm in length. One end of each tube was closed with liquid silicone and dried for 24 hours to allow fumes to diffuse out. Tubes were then autoclaved.
A dilution of test substances was prepared in matrigel in sterile cold Eppendorf tubes. A stock of 25× was prepared to avoid diluting the matrigel too much. Tubes were filled with a Hamilton syringe. All the material was kept sterile and cold. Each tube required 18-20 μl. The matrigel was allowed to solidify at 37° C. for at least 30 minutes.
Nude mice were anesthetized with Ketamine and Xylazine (1:4 ratio), 50 μl per mouse, […]. A pocket was made in the dorsal skin of each animal with scissors. The tubes were implanted with the open end first. The wounds were then sealed with surgical clips. Mice were kept warm until they recovered consciousness. Mice were then maintained for nine to eleven days.
Mice were placed under a heating lamp to dilate their tail veins. Tail veins were injected with 25 mg/ml FITC-dextran (Sigma), 100 μl/mouse. After about 20 minutes, the dye had been distributed. Mice were then euthanized with CO2 and the skin pockets were removed and kept in a PBS-wet cloth.
Skin was then dissected out, keeping the vessels near the mouth of the tube. The tube was placed in an Eppendorf tube containing 300 μdispase (Collaborative Biomedical Products). Then the matrigel was displaced from the tube; these were frozen until they were needed later.
Matrigels were thawed and incubated at 37° C. for one hour, then vortexed, centrifuged, and 100 μl was transferred into a 96-well plate for fluorescent emission (black sides). Excitation for FITC was 485 nm. Emission was 535 nm. Fluorescence was read in a fluorometer.

[1] = system: aortic rings of 13 day-old chicken embryos; assay: Chick embryo aortic arch assay; type: cell-based; conditions: for sprouting of new vessels versus control: 1 nM peptide
Description: The chick embryo aortic arch assay is an ex vivo angiogenesis assay that was performed as previously described (Isaacs, et al., J. Biol. Chem., 16; 277(33):29936-44, 2002; Auerbach et al., Clin. Chem. 49, 32-40, 2003). Briefly, aortic rings of approximately 0.8 mm in length were prepared from the five aortic arches of 13 day-old chicken embryos (Truslow Farms) and the soft connective tissue of the adventitia layer was carefully removed with tweezers. Each aortic ring was placed in the center of a well in a 48-well plate and covered with 10 μl matrigel (BD Biosciences). After the matrigel solidified, 300 μl of growth factor-free human endothelial-SFM basal growth medium (Invitrogen) containing the proper concentration of the test substances were added to each well. The plates were kept in a humid incubator at 37° C. in 5% CO2 for 24-36 hours. Microvessels sprouting from each aortic ring were photographed in an inverted microscope and the area covered by the newly formed capillaries was estimated by image analysis.

[2] = system: human microvascular endothelial cells; assay: Proliferation assay (MTT); type: cell-based; conditions: three days; for endothelial cell proliferation over the control: 10^−8 M, serum-free medium, p<0.001
Description: The same microvascular endothelial cells were seeded in 96-well plates at a density of 2.0×10^5 cells per well in serum-free medium containing different concentrations of the test peptides. After three days in culture, the number of viable cells per well was estimated by the MTT assay as reported (Iwai et al., Lung Cancer 23, 209-222, 1999). Results are represented as percentage growth over the untreated control.

human endothelial cells [3] = assay: Migration assay (ChemoTx chamber); type: cell-based; conditions: for increase in migration: 10^−11 M, four hour incubation, p<0.001; for concentration of peak of migration stimulation: lower and higher concentrations less efficient
Description: Cell motility was measured as described (Martinez et al., J. Natl. Cancer Inst., 21; 94(16):1226-37, 2002). Test peptides were placed at various concentrations at the bottom of a ChemoTx chamber (NeuroProbe Inc.). The intermediate membrane was coated with 10 μg/ml fibronectin, and in the upper chamber 5.0×10^5 human endothelial cells were added. After a four hour incubation at 37° C., the membrane was fixed and stained (Protocol Hema3, Biochemical Sciences Inc.). The cells trapped in the porous membrane were photographed through a 25× microscope objective and the number of cells per photographic field was counted.

human endothelial cells [4] = assay: Real-time PCR quantification of gene expression; type: cell-based; conditions: for expression of the AM/PAMP gene: addition of 10 nM peptide
Description: Human endothelial cells were cultured in T-75 flasks at a density of 2.5×10^6 cells/well. After the cells were attached to the bottom of the plate, they were treated with 10 nM PAMP in serum-free medium for 24 hours. At the end of this exposure, the cells were washed once with PBS, scraped from the plate and their total RNA was extracted using the RNeasy Mini Kit from Qiagen and reverse transcribed using the SuperScript First-Strand Synthesis system (Invitrogen). Quantification of gene expression was performed by real-time PCR as described (Martinez et al., J. Endocrinol. 176, 95-102, 2003). The PCR reaction was run in an Opticon cycler (MJ Research) using Sybr Green PCR master mix (Applied Biosystems). Thermocycling was performed in a final volume of 25 μl containing 2 μl of cDNA (1:10 dilution) and 400 nM of primers (see below). All targets were amplified in triplicates in the same run as the house-keeping gene, using the following cycle scheme: after initial denaturation of the samples at 95° C. for 2 minutes, 46 cycles of 95° C. for 30 seconds, 60° C. for 30 seconds, and 72° C. for 30 seconds were performed.
Fluorescence was measured in every cycle and mRNA levels were normalized by the 18S RNA values in all samples. A melting curve was run after PCR by increasing temperature from 50° C. to 96° C. (0.5° C. increments). A single peak was obtained for all amplicons, thus confirming the specificity of the reaction.

Row | Substance | FITC-dextran fluorescence of implants (angiogenesis) (nude mice; 10 pM peptide in matrigel) | FITC-dextran fluorescence of implants (angiogenesis) (nude mice; 1 nM peptide in matrigel) | FITC-dextran fluorescence of implants (angiogenesis) (nude mice; 100 nM peptide in matrigel) | FITC-dextran fluorescence of implants (angiogenesis) (nude mice; 1 fM peptide in matrigel) | FITC-dextran fluorescence of implants (angiogenesis) (nude mice; 100 fM peptide in matrigel) | sprouting of new vessels versus control [1] | endothelial cell proliferation over the control [2] | increase in migration (human endothelial cells [3]) | concentration of peak of migration stimulation (human endothelial cells [3]) | expression of the AM/PAMP gene (human endothelial cells [4]) | further results
1 | vascular endothelial growth factor [VEGF] | 863.4 ± 437 arbitrary fluorescence units | 8435 ± 3931 arbitrary fluorescence units | 11206 ± 3735 arbitrary fluorescence units | 1563.2 ± 1643 arbitrary fluorescence units | 571 ± 785 arbitrary fluorescence units | do not promote any significant proliferation over the control | significantly increase proliferation | four-fold | 10^−11 M | indistinguishable from the untreated controls | cell migration at other concentrations (human endothelial cells [3]; concentrations lower than 10^−11 M): also induced a significant increase in cell migration
2 | proadrenomedullin N-terminal 20 peptide (ARLDVASEFRKKWNKWALSR; listed as Homo sapiens) [PAMP, 20 amino-acid molecule originating from the post-translational processing of pre-proadrenomedullin; synthetic human, purchased from Bachem] | 7611.2 ± 3747 arbitrary fluorescence units | 10122.2 ± 3970 arbitrary fluorescence units | 22283.6 ± 6746 arbitrary fluorescence units | 6837.6 ± 1982 arbitrary fluorescence units | 7044 ± 1727 arbitrary fluorescence units | larger than the control |  | four-fold | 10^−11 M |  | angiogenic potency compared with VEGF or AM (nude mice; Table 2, FIG. 1, FIG. 2): significantly more potent; angiogenic potency relative to VEGF and bFGF (nude mice; on a molar basis, based on embryonic chick aortic ring assay and DIVAA): roughly one million; concentrations inducing increase of sprouting blood vessels over untreated controls ([1]; chick embryo aortic rings in matrigel, 24-36 hours): ≥ 1 nM; endothelial cell growth ([2]; at the concentrations tested): did not significantly modify cell growth; expression of PDGF A mRNA (human endothelial cells [4]; 10 nM PAMP, 24 hours): no significant modification; expression of PDGF B mRNA (human endothelial cells [4]; 10 nM PAMP, 24 hours): no significant modification; expression of PDGF C mRNA (human endothelial cells [4]; 10 nM PAMP, 24 hours): elevating the expression; expression of VEGF mRNA (human endothelial cells [4]; 10 nM PAMP, 24 hours): elevating the expression; expression of bFGF mRNA (human endothelial cells [4]; 10 nM PAMP, 24 hours): elevating the expression; expression of AM gene mRNA (human endothelial cells [4]; 10 nM PAMP, 24 hours, normalized by 18S RNA): about 50 % over basal levels
3 | Adrenomedullin [AM] | 1033.2 ± 343 arbitrary fluorescence units | 9590 ± 3164 arbitrary fluorescence units | 13490 ± 2731 arbitrary fluorescence units | 496 ± 275 arbitrary fluorescence units | 787 ± 130 arbitrary fluorescence units | do not promote any significant proliferation over the control | significantly increase proliferation |  |  | indistinguishable from the untreated controls | effect on cell migration (human endothelial cells [3]; on the concentration range tested): did not modify cell migration significantly
